Counter-ions that a name gives are not always drawn. Like-named read-outs stand apart in the source and are kept apart here. Each block holds one compound with its values, some of them ahead of it.
Experiments:
[1] = test system: HMC-1, a mast cell leukemia line (KITD816V-positive); assay: XTT cell proliferation assay, HMC-1; format: cell-based; conditions: for IC50: Homo sapiens
HEL cells = assay: XTT cell proliferation assay, HEL cells; format: cell-based; conditions: Homo sapiens, XTT assay, Table 19, read-out: Cellular IC50 HEL
[2] = test system: EOL-1, a chronic eosinophilic leukemia (CEL) derived line (FIP1L1-PDFRA-positive); assay: XTT cell proliferation assay, EOL-1; format: cell-based; conditions: for IC50: Homo sapiens, EOL1, XTT assay, read-out: Cellular IC50 EOL-1
[3] = Ocular exposure after eye drop administration; format: in vivo; conditions: mouse, bilateral topical instillation of 0.1% formulation QDX1
Procedure: Exposure data of compounds at 0.1% via eye drop administration:
On topical dosing of compounds formulated as 0.1% doses in 0.2% tyloxapol/1% HPMC/4% Mannitol, exposure levels in found in back of the eye tissues of the mouse are shown at two different time points, namely at 2 h and at 7 h.

[4] = target: T1, Ba/F3 T674I (FIP1L1-PDFRA-T674I) (Homo sapiens, UniProt P16234, T674I, cells depend on it); assay: XTT cell proliferation assay, Ba/F3 T674I; format: cell-based; conditions: for GI50: XTT assay, read-out: Cellular IC50 Ba/F3 T674I
T1 construct: fused on or other part: Q6UN15 (Pre-mRNA 3'-end-processing factor FIP1)
T1 sequence (P16234 whole entry T674I, the tested form may be a part): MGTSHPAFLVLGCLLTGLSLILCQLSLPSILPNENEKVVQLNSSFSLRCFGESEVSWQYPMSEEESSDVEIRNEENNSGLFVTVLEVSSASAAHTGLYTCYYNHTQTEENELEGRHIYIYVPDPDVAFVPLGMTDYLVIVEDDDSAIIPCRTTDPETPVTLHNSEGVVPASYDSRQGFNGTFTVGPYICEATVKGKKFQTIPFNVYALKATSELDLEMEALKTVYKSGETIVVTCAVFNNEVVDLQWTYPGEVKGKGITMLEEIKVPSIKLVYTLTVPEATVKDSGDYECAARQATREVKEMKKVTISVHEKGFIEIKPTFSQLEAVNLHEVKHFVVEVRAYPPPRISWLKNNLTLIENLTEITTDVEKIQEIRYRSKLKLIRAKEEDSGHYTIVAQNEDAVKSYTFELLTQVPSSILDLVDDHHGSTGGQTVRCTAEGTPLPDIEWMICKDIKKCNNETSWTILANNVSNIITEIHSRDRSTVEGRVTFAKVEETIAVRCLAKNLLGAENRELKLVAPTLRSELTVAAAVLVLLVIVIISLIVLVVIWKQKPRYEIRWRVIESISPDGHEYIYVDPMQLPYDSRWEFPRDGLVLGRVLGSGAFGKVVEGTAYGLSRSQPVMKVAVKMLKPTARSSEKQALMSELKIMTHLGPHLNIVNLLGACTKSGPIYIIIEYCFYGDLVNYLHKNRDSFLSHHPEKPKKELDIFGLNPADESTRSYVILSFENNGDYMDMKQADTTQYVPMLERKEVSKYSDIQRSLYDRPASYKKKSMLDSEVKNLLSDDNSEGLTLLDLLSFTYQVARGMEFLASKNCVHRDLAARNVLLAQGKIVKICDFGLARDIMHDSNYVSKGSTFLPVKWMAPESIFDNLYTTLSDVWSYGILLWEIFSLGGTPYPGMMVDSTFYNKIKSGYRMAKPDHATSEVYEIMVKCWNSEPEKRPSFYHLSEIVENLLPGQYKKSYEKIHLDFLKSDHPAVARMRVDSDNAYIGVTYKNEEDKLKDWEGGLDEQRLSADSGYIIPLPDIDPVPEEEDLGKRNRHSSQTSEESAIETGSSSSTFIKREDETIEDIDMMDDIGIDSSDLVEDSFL

[5] = Ocular exposure after eye drop administration; format: in vivo; conditions: mouse
recombinant JAK2 = target: T2, recombinant JAK2 (Homo sapiens, UniProt O60674); assay: IC50 value determinations for Jak2 kinase, luminescence-based kinase assay (Kinase-Glo); format: biochemical
T2 construct: purchased Upstate Cell Signaling Solutions
T2 sequence (O60674 808-1132 limits assumed): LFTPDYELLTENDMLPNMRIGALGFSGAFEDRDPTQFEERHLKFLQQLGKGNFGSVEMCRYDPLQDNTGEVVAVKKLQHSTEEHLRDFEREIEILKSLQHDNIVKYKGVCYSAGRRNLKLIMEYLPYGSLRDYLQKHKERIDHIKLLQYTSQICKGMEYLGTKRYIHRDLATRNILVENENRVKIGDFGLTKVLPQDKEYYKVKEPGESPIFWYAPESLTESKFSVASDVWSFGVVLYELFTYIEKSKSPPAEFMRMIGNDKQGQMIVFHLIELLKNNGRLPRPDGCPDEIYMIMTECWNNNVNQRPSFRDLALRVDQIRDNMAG

[6] = cornea, read-out: Concentration (nM) Cornea
[7] = retina, read-out: Concentration (nM) retina
[8] = sclera/choroid, read-out: Concentration (nM) Sclera/choroid
[9] = HMC1, XTT assay, read-out: Cellular IC50 HMC-1

concentration at 2 h [3, 6]: 45000 nM | concentration at 7 h [3, 6]: 21000 nM | concentration at 2 h [3, 7]: 2120 nM | concentration at 7 h [3, 7]: 2150 nM | concentration at 2 h [3, 8]: 6090 nM | concentration at 7 h [3, 8]: 7350 nM
Structure (SMILES): Cc1cnc(Nc2ccc(N3CCN(C)CC3)cc2)nc1Nc1ccc(Cl)c2[nH]ccc12 [Compound LXXIV, N^4-(7-Chloro-1H-indol-4-yl)-5-methyl-N^2-(4-(4-methylpiperazin-1-yl)phenyl)pyrimidine-2,4-diamine]

concentrations inhibiting growth of Ba/F3 cells harboring FIP1L1-PDFGRA-T674I [4]: nanomolar concentrations
Structure (SMILES): Cc1cn(-c2cc(NC(=O)c3ccc(C)c(Nc4nccc(-c5cccnc5)n4)c3)cc(C(F)(F)F)c2)cn1 [nilotinib]

concentrations inhibiting growth of Ba/F3 cells harboring FIP1L1-PDFGRA-T674I [4]: nanomolar concentrations | GI50 [4]: 16 nM | IC50 [1, 9]: 4000 nM | IC50 [2]: 0.002 nM
Structure (SMILES): CNC(=O)c1cc(Oc2ccc(NC(=O)Nc3ccc(Cl)c(C(F)(F)F)c3)cc2)ccn1 [Sorafenib]
sensitivity of HMC-1 growth [1]: only a limited effect | concentrations inhibiting EOL-1 growth [2]: picomolar concentrations

concentration at 6 h ([5]; cornea, bilateral topical instillation of 0.1% formulation QDX1, read-out: Concentration (nM) Cornea): 3780 nM | concentration at 6 h ([5]; retina, bilateral topical instillation of 0.1% formulation QDX1, read-out: Concentration (nM) retina): 351 nM | concentration at 6 h ([5]; sclera/choroid, bilateral topical instillation of 0.1% formulation QDX1, read-out: Concentration (nM) Sclera/choroid): 2970 nM | concentration at 2 h [3, 6]: 8840 nM | concentration at 2 h [3, 7]: 495 nM | concentration at 2 h [3, 8]: 6040 nM
Structure (SMILES): COc1cc(Nc2nc(Nc3ccc(OCCN4CCCC4)cc3)ncc2C)ccc1Cl [XVII]

IC50 (recombinant JAK2; Table 1): 20.7 nM
Structure (SMILES): Cc1cnc(Nc2ccc(OCCN3CCCC3)cc2)nc1Nc1cccc(OC(F)(F)F)c1 [N2-(4-(2-(pyrrolidin-1-yl)ethoxy)phenyl)-5-methyl-N4-(3-(trifluoromethoxy)phenyl) pyrimidine-2,4-diamine]

IC50 (recombinant JAK2; Table 1): 12.5 nM
Structure (SMILES): Cc1cnc(Nc2ccc(CN3CCOCC3)cc2)nc1Nc1cccc(S(=O)(=O)NC(C)(C)C)c1 [N-tert-Butyl-3-[5-methyl-2-(4-morpholin-4-ylmethyl-phenylamino)-pyrimidin-4-ylamino]-benzenesulfonamide]

Continued, compound first:

Structure (SMILES): Cc1cnc(Nc2ccc(OCCN3CCCC3)cc2)nc1Nc1cccc(S(=O)(=O)NC(C)(C)C)c1 [LVII]
IC50 ([1]; HMC1, read-out: Cellular IC50 HMC-1 (nM)): 355 nM | IC50 (HEL cells): 300 nM | IC50 [2]: < 0.001 nM

Structure (SMILES): Cc1cnc(Nc2ccc(OCCN3CCCC3)cc2)nc1Nc1cccc2c1OCO2 [Compound XXXVI, N^4-Benzo[1,3]dioxol-4-yl-5-methyl-N^2-[4-(2-pyrrolidin-1-yl-ethoxy)-phenyl]-pyrimidine-2,4-diamine]
concentration at 2 h [3, 6]: 7870 nM | concentration at 7 h [3, 6]: 18600 nM | concentration at 2 h [3, 7]: 816 nM | concentration at 7 h [3, 7]: 11200 nM | concentration at 2 h [3, 8]: 7250 nM | concentration at 7 h [3, 8]: 34800 nM

Structure (SMILES): COc1cc(Nc2nc(Nc3ccc(OC4CCNCC4)cc3)ncc2C)ccc1Cl [Compound LXXXII, N^4-(4-Chloro-3-methoxy-phenyl)-5-methyl-N^2-[4-(piperidin-4-yloxy)-phenyl]-pyrimidine-2,4-diamine]
concentration at 2 h [3, 6]: 69900 nM | concentration at 7 h [3, 6]: 45400 nM | concentration at 2 h [3, 7]: 267 nM | concentration at 7 h [3, 7]: 592 nM | concentration at 2 h [3, 8]: 2340 nM | concentration at 7 h [3, 8]: 2250 nM

Structure (SMILES): Cc1ccc(NC(=O)c2ccc(CN3CCN(C)CC3)cc2)cc1Nc1nccc(-c2cccnc2)n1 [Imatinib, imatinib mesylate]
concentrations inhibiting EOL-1 growth [2]: picomolar concentrations

Structure (SMILES): Cc1nc(Nc2ncc(C(=O)Nc3c(C)cccc3Cl)s2)cc(N2CCN(CCO)CC2)n1 [Dasatinib, dasatinib]
GI50 [4]: 30900 nM | IC50 [1, 9]: 1300 nM | IC50 [2]: < 0.001 nM

Structure (SMILES): Cc1cnc(Nc2ccc(OCCN3CCCC3)cc2)nc1Nc1cccc(C(C)(C)C)c1 [N2-(4-(2-(pyrrolidin-1-yl)ethoxy)phenyl)-N4-(3-tert-butylphenyl)-5-methylpyrimidine-2,4-diamine Hydrochloride]
IC50 (recombinant JAK2; Table 1): 6.71 nM

Structure (SMILES): Cc1cnc(Nc2ccc(-n3cccn3)cc2)nc1Nc1cccc(S(=O)(=O)NC(C)(C)C)c1 [N-tert-Butyl-3-[5-methyl-2-(4-pyrazol-1-yl-phenylamino)-pyrimidin-4-ylamino]-benzenesulfonamide]
IC50 (recombinant JAK2; Table 1): 19 nM

Structure (SMILES): COc1cc(Nc2nc(Nc3ccc(N4CCN(C)CC4)cc3)ncc2C)ccc1Cl [N4-(4-Chloro-3-methoxy-phenyl)-5-methyl-N2-[4-(4-methyl-piperazin-1-yl)-phenyl]-pyrimidine-2,4-diamine]
IC50 (recombinant JAK2; Table 1): 5.5 nM

Structure (SMILES): Cc1cnc(Nc2ccc(-n3cncn3)cc2)nc1Nc1cccc(S(=O)(=O)NC(C)(C)C)c1 [N-tert-Butyl-3-[5-methyl-2-(4-[1,2,4]triazol-1-yl-phenylamino)-pyrimidin-4-ylamino]-benzenesulfonamide]
IC50 (recombinant JAK2; Table 1): 41.4 nM

Structure (SMILES): COc1cc(Nc2nc(Nc3ccc(OCCN4CCCC4)cc3)ncc2C#N)c(Cl)cc1Cl [Compound 1]
IC50 (recombinant JAK2; Table 5, Initial Screening Hits for JAK2): 6240 nM

Structure (SMILES): Cc1cnc(Nc2ccc(N3CCN(C)CC3)cc2)nc1Nc1cccc(C(=O)NC(C)C)c1 [N-Isopropyl-3-{5-methyl-2-[4-(4-methyl-piperazin-1-yl)-phenylamino]-pyrimidin-4-ylamino}-benzamide]
IC50 (recombinant JAK2; Table 1): 541 nM

Structure (SMILES): COc1cc(Nc2nc(Nc3ccc(N4CCNCC4)cc3)ncc2C)ccc1Cl [Compound XLIV, N^4-(4-Chloro-3-methoxy-phenyl)-5-methyl-N^2-(4-piperazin-1-yl-phenyl)-pyrimidine-2,4-diamine]
concentration at 2 h [3, 6]: 103000 nM | concentration at 7 h [3, 6]: 26600 nM | concentration at 2 h [3, 7]: 406 nM | concentration at 7 h [3, 7]: 321 nM | concentration at 2 h [3, 8]: 4840 nM | concentration at 7 h [3, 8]: 3180 nM
